Results from patent US20080221109A1, “PESTICIDAL SUBSTITUTED THIOETHERS” (priority 2005, published 2008).

melting point: 51 °C
Compound: O=C1CCCCC1Sc1ncccn1 (stereo not shown) [Compound 03-43, 2-(Pyrimidin-2-ylsulfanyl)-cyclohexanone]
